According to patent US4575560A, “Insecticidal diaminoguanidine hydrazone compounds” (American Cyanamid Company, priority 1985, dated 1986):
≈ marks a conversion by molar mass, not a printed value. Where a name gives a salt, the structure may show the parent alone.

What was measured:
Southern Armyworm = test: Southern armyworm test, third-instar larvae on treated Sieva lima bean leaves; format: in vivo, Spodoptera eridania (Cramer); conditions: for Mortality Rating Southern Armyworm: third-instar larvae
Protocol: Test formulations and procedures used for evaluation are as follows:
A. 100 mg of the test material is weighed, placed in a funnel over a 113 g narrow-mouth bottle, rinsed into the bottle with a 35 mL scoop of acetone, followed by a 35 mL scoop of water and another 35 mL scoop of acetone to yield 1000 ppm in 65% acetone. If the material is not soluble, it is broken up with a glass rod and used as a suspension.
B. This stock solution ("A") is used to make 300 ppm solutions or suspensions by pipetting 30 mL of "A" into a bottle containing 70 mL of 50% acetone to yield 300 ppm. Further dilutions in 50% acetone are made as required.
C. Tests requiring 10 ppm acetone solutions: 1 mL of "A" is pipetted into 99 mL of acetone to yield 10 ppm. Additional dilutions are made using 50% acetone as required.
Southern Armyworm--Spodoptera eridania (Cramer)
A Sieva lima bean plant with just the primary leaves expanded to 1.91 cm is dipped for three seconds with agitation in the "A" solution of 1000 ppm and set in the hood to dry. Following this, one leaf is placed in a 9 cm petri dish which has a moist filter paper in the bottom and 10 third-instar armyworm larvae about 1 cm long. This dish is covered and held at 80° F., and 50% r.h. After two days, mortality counts and estimates of the amount of feeding are made. Compounds showing partial kill and/or inhibition of feeding are held for an extra day for further observations.
All compounds showing activity as defined above are retested, using the second leaf on the bean plant, after an interval of seven days from original treatment, as an assay of residual activity.

[1] = system: Tobacco Budworm 3rd Instar; test: Tobacco budworm secondary test, third-instar larvae on treated cotton cotyledons; format: in vivo, Heliothis virescens (Fabricus)

Compound | Mortality Rating Southern Armyworm (Southern Armyworm; 10 ppm) | Mortality Rating Southern Armyworm (Southern Armyworm; 100 ppm) | Mortality Rating Southern Armyworm (Southern Armyworm; 1000 ppm) | Mortality Rating Tobacco Budworm 3rd Instar ([1]; 100 ppm) | reduced feeding (R) Tobacco Budworm 3rd Instar ([1]; 100 ppm) | Mortality Rating Tobacco Budworm 3rd Instar ([1]; 1000 ppm) | reduced feeding (R) Tobacco Budworm 3rd Instar ([1]; 1000 ppm) | Mortality Rating Tobacco Budworm 3rd Instar ([1]; 10 ppm) | reduced feeding (R) Tobacco Budworm 3rd Instar ([1]; 10 ppm) | reduced feeding (R) Southern Armyworm (Southern Armyworm; 100 ppm) | reduced feeding (R) Southern Armyworm (Southern Armyworm; 1000 ppm) | LC50 (Southern Armyworm; Spodoptera eridania, read-out: LC50 Southern Armyworm) [µg/mL]
CC(C)OC(=O)N(N=Cc1ccc(OC(F)(F)F)cc1)C(=N)NN=Cc1ccc(OC(F)(F)F)cc1 [CF3 O / CF3 O / -i-C3 H7] | 7 (76-85%) | 9 (100%) | 9 (100%) | 5 (56-65%) | R | – | – | – | – | – | – | –
CCN(CC)C(=O)N(N=Cc1ccc(OC(F)(F)F)cc1)C(=N)NN=Cc1ccc(OC(F)(F)F)cc1 [CF3 O / CF3 O / C2 H5 / C2 H5] | 0 (No effect) | 9 (100%) | 9 (100%) | – | – | 8 (86-99%) | – | – | – | – | – | –
CCOC(=O)N(N=Cc1ccc(OC(F)(F)F)cc1)C(=N)NN=Cc1ccc(OC(F)(F)F)cc1 [CF3 O / CF3 O / C2 H5] | 6 (66-75%) | 9 (100%) | 9 (100%) | 2 (26-35%) | – | 7 (76-85%) | R | – | – | – | – | –
C=CCOC(=O)N(N=Cc1ccc(OC(F)(F)F)cc1)C(=N)NN=Cc1ccc(OC(F)(F)F)cc1 [CF3 O / CF3 O / CH2CHCH2] | 6 (66-75%) | 8 (86-99%) | 9 (100%) | – | – | 0 (No effect) | R | – | – | – | – | –
N=C(NN=Cc1ccc(OC(F)(F)F)cc1)N(N=Cc1ccc(OC(F)(F)F)cc1)C(=O)OCC(Cl)(Cl)Cl [CF3 O / CF3 O / Cl3 CCH2] | 9 (100%) | 9 (100%) | 9 (100%) | 1 (11-25%) | R | 0 (No effect) | R | – | – | – | – | –
N=C(NN=Cc1ccc(OC(F)(F)F)cc1)N(N=Cc1ccc(OC(F)(F)F)cc1)C(=O)OCCCl [CF3 O / CF3 O / ClCH2 CH2] | 5 (56-65%) | 9 (100%) | 9 (100%) | 0 (No effect) | R | 8 (86-99%) | R | 0 (No effect) | R | – | – | –
CCC(C)OC(=O)N(N=Cc1ccc(OC(F)(F)F)cc1)C(=N)NN=Cc1ccc(OC(F)(F)F)cc1 (stereo not drawn) [CF3 O / CF3 O / drawing 55] | 0 (No effect) | 9 (100%) | 9 (100%) | 0 (No effect) | R | 8 (86-99%) | – | – | – | – | – | –
CCC(C)OC(=O)N(N=Cc1ccc(Cl)cc1)C(=N)NN=Cc1ccc(Cl)cc1 (stereo not drawn) [Cl / Cl / drawing 56] | – | 0 (No effect) | 9 (100%) | 0 (No effect) | – | 0 (No effect) | R | – | – | – | – | –
N=C(NN=Cc1ccc(Cl)cc1)NN=Cc1ccc(OC(F)(F)C(F)F)cc1 [Cl / HCF2 CF2 O / B] | 0 (No effect) | 9 (100%) | 9 (100%) | 0 (No effect) | – | 0 (No effect) | R | – | – | – | – | –
N=C(NN=Cc1ccc(Cl)cc1)NN=Cc1ccc(Cl)cc1 [Cl / HCl] | 0 (No effect) | 0 (No effect) | – | – | – | 0 (No effect) | – | – | – | R | R | –
N=C(NN=Cc1ccc(Cl)cc1)NN=Cc1ccc(Cl)cc1 [Cl / HNO3] | – | 0 (No effect) | 9 (100%) | – | – | 0 (No effect) | – | – | – | – | – | –
CN(C)C(=O)N(N=Cc1ccc(F)cc1)C(=N)NN=Cc1ccc(F)cc1 [F / F / CH3 / CH3] | – | 0 (No effect) | 8 (86-99%) | – | – | 0 (No effect) | – | – | – | – | – | –
CC(C)OC(=O)N(N=Cc1ccc(OC(F)(F)C(Cl)Cl)cc1)C(=N)NN=Cc1ccc(OC(F)(F)C(Cl)Cl)cc1 [HCCL2 CF2 O / HCCl2 CF2 O / -i-C3 H7] | – | 0 (No effect) | 7 (76-85%) | 0 (No effect) | R | 0 (No effect) | R | – | – | – | – | –
N=C(NN=Cc1ccc(OC(F)(F)C(Cl)Cl)cc1)NN=Cc1ccc(OC(F)(F)C(Cl)Cl)cc1 [HCCL2 CF2 O / S] | 7 (76-85%) | 9 (100%) | 9 (100%) | 0 (No effect) | R | 5 (56-65%) | – | – | – | – | – | –
N=C(NN=Cc1ccc(OC(F)(F)C(Cl)Cl)cc1)NN=Cc1ccc(OC(F)(F)C(Cl)Cl)cc1 [HCCl2 CF2 O / B] | 0 (No effect) | 0 (No effect) | 9 (100%) | – | – | 4 (46-55%) | R | – | – | – | – | –
N=C(NN=Cc1ccc(OC(F)(F)C(F)F)cc1)N(N=Cc1ccc(OC(F)(F)C(F)F)cc1)C(=O)N1CCCC1 [HCF2 CF2 O / HCF2 CF2 O / (CH2)4] | – | 9 (100%) | 9 (100%) | 0 (No effect) | – | 3 (36-45%) | – | – | – | – | – | –
CC(C)OC(=O)N(N=Cc1ccc(OC(F)(F)C(F)F)cc1)C(=N)NN=Cc1ccc(OC(F)(F)C(F)F)cc1 [HCF2 CF2 O / HCF2 CF2 O / -i-C3 H7] | 0 (No effect) | 9 (100%) | 9 (100%) | 0 (No effect) | – | 5 (56-65%) | – | – | – | – | – | –
CCN(CC)C(=O)N(N=Cc1ccc(OC(F)(F)C(F)F)cc1)C(=N)NN=Cc1ccc(OC(F)(F)C(F)F)cc1 [HCF2 CF2 O / HCF2 CF2 O / C2 H5 / C2 H5] | 1 (11-25%) | 9 (100%) | 9 (100%) | 0 (No effect) | – | 5 (56-65%) | – | 0 (No effect) | – | – | – | –
CCNC(=O)N(N=Cc1ccc(OC(F)(F)C(F)F)cc1)C(=N)NN=Cc1ccc(OC(F)(F)C(F)F)cc1 [HCF2 CF2 O / HCF2 CF2 O / C2 H5 / H] | 0 (No effect) | 9 (100%) | 9 (100%) | – | – | 4 (46-55%) | – | – | – | – | – | 34 (≈ 59.8 µM)
CNC(=O)N(N=Cc1ccc(OC(F)(F)C(F)F)cc1)C(=N)NN=Cc1ccc(OC(F)(F)C(F)F)cc1 [HCF2 CF2 O / HCF2 CF2 O / CH3 / H] | 0 (No effect) | 9 (100%) | 9 (100%) | – | – | 4 (46-55%) | – | – | – | – | – | –
